# According to patent EP4389156A1, “RA[…] LIGAND COMPOUNDS AND PRECURSORS THEREOF” (Technische Universität München, priority 2022, dated 2024):
# Key:
# [1] = target: T1, human serum albumin (HSA) (Homo sapiens, UniProt P02768); assay: HSA binding by high performance affinity chromatography (HPAC); format: in vitro ADME; settings: uncomplexed compounds, n = 1
# T1 construct: purchased Daicel, Tokyo, Japan H13H-2433
# Method: HSA binding of the uncomplexed PSMA ligands was determined according to a previously published procedure via HPLC (Valko, K.; Nunhuck, S.; Bevan, C.; Abraham, M. H.; Reynolds, D. P., Fast gradient HPLC method to determine compounds binding to human serum albumin. Relationships with octanol/water and immobilized artificial membrane lipophilicity. J Pharm Sci. 2003, 92, 2236-2248). A Chiralpak HSA column (50 × 3 mm, 5 µm, H13H-2433, Daicel, Tokyo, Japan) was used at a constant flow rate of 0.5 mL/min at rt. Mobile phase A was a freshly prepared 50 mM aqueous solution of NH4OAc (pH 6.9) and mobile phase B was isopropanol (HPLC grade, VWR). The applied gradient for all experiments was 100% A (0 to 3 min), followed by 80% A (3 to 40 min). Prior to the experiment, the column was calibrated using nine reference substances with a HSA binding, known from literature, in the range of 13 to 99% (Valko, K.; Nunhuck, S.; Bevan, C.; Abraham, M. H.; Reynolds, D. P., J Pharm Sci. 2003, 92, 2236-2248; Yamazaki, K.; Kanaoka, M., Computational prediction of the plasma protein-binding percent of diverse pharmaceutical compounds. J Pharm Sci. 2004, 93, 1480-1494). All substances, including the examined PSMA ligands, were dissolved in a 1:1 mixture (v/v) of isopropanol and a 50 mM aqueous solution of NH4OAc (pH 6.9) with a final concentration of 0.5 mg/mL. Non-linear regression was established with the OriginPro 2016G software (Northampton, United States).
# LNCaP cells = assay: PSMA-mediated internalization into LNCaP cells; format: cell-based; settings: 1 h
# Method: Competitive binding studies were carried out in analogy to a previously reported procedure. As a modification the non-radiolabeled standard competitor (((S)-1-carboxy-5-(4-(iodo)benzamido)pentyl)carbamoyl)-L-glutamic acid (IBA-KuE) was applied in increasing concentrations (10^-5 - 10^-11 M/well, n = 3 each) whereas the novel PSMA-binding compounds of interest were applied as ^99mTc-labeled radioligands (0.2 nM/well). In this inversed experimental approach, higher values correspond to higher affinities and are referred to as inverse IC50. Poly-L-lysine coated 24-well plates were used (n = 3). Data are given as mean ± SD. To determine the cellular uptake of the ^99mTc-labeled PSMA ligands into LNCaP cells by means of PSMA-mediated internalization at 1 h, a previously reported protocol was applied with assay concentrations of 1.0 nM and 0.2 nM for ^99mTc-labeled PSMA ligands and the reference compound [^125I]IBA-KuE, respectively. Data are corrected for non-specific binding and normalized to the specific internalization of the reference. Results are given as mean ± SD.
# [2] = Lipophilicity (logD7.4), shake-flask method; format: physicochemical; settings: n-octanol/PBS (pH 7.4), n = 8, mean ± SD
# Method: The lipophilicity of ^99mTc-labeled PSMA ligands, expressed as distribution coefficient (logD7.4), was determined using the shake-flask method. A solution of approximately 1 MBq of radioligand in 1 mL of a 1:1 mixture of PBS (pH = 7.4) and n-octanol (n = 8) was vortexed vigorously for 3 min. After centrifugation at 9000 rpm for 5 min aliquots of both phases (200 µL n-octanol, 50 µL PBS) were collected and the activity was quantified in a γ-counter. logD7.4 values were calculated as decadic logarithm of the activity concentration ratio between the n-octanol phase and the aqueous phase. Data are given as mean ± standard deviation (SD). Binding to human plasma was determined by incubation of radioligands in human plasma (2 nM concentration, 37 °C for 30 min) and subsequent ultrafiltration (250 µL aliquots, 3200 rpm, 40 min) in Centrifree® ultrafiltration devices (Merck Millipore, Cork, Ireland). The fraction bound to human plasma proteins was calculated as the ratio of unfiltered activity and the total activity in the ultrafiltration device. Measurements were performed in three independent experiments, each with two replicates (n = 6, data are given as mean ± SD). All values were corrected for non-specific binding (control experiments in PBS).
# T1 sequence (P02768 25-609): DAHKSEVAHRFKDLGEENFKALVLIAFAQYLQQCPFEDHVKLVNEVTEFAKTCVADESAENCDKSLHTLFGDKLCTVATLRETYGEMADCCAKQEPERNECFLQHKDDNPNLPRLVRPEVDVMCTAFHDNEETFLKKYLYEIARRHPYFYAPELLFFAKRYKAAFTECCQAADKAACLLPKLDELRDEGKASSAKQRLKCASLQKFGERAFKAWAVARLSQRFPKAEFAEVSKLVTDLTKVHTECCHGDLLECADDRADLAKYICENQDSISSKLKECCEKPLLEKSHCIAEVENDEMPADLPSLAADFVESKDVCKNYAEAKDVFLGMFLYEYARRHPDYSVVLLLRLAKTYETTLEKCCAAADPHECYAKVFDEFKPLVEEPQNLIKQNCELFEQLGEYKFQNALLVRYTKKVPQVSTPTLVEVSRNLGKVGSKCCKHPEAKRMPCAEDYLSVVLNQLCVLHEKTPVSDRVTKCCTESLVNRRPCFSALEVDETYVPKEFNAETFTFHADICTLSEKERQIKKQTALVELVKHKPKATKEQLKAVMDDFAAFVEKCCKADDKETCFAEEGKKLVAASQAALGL
smiles,measurement,setting,value
CC(C)(C)[Si](O)(c1ccc(C(=O)NC[C@@H](NC(=O)[C@@H](CCC(=O)O)NC(=O)C(CNCCN)CNCCN)C(=O)N[C@H](CCCCNC(=O)CCC(=O)NCCC[C@@H](NC(=O)CC[C@H](NC(=O)N[C@@H](CCC(=O)O)C(=O)O)C(=O)O)C(=O)O)C(=O)O)cc1)C(C)(C)C.[O]=[99Tc+]=[O] [[^99mTc]Tc-N4-PSMA-12],HSA-binding (HPAC) (%),[1],47.7%
same,internalization (% IBA-KuE),"LNCaP cells; 37°C, n = 3, as percentage of reference [125I]IBA-KuE, mean ± SD",311 ± 16%
same,fold higher internalization than [^99mTc]Tc-N4-PSMA-13,LNCaP cells; relative to [^99mTc]Tc-N4-PSMA-13,1.9 fold
same,fold higher internalization than [^99mTc]Tc-N4-PSMA-21,LNCaP cells; relative to [^99mTc]Tc-N4-PSMA-21,1.7 fold
same,fold higher internalization than [^99mTc]Tc-PSMA-I&S,LNCaP cells; relative to [^99mTc]Tc-PSMA-I&S,1.3 fold
same,logD7.4,[2],-3.35 ± 0.05
